Experimental data published in patent US6777420B2, “Heterocyclic antibacterial compounds” (Microbiotix, Inc., priority 2001, dated 2004).
Converted amounts (≈) assume the structure as drawn. Marks after values point to notes of the source that are not given here.

Columns and labels:
B. subtilis Pol IIIC = biological target: T1, B. subtilis Pol IIIC (Bacillus subtilis, UniProt P13267); assay: Polymerase IIIC (Pol IIIC) assay, determination of Ki values; type: biochemical; conditions: Ki = concentration that reduces control polymerase activity by 50 percent
T1 construct: made in house
T1 sequence (P13267 whole entry): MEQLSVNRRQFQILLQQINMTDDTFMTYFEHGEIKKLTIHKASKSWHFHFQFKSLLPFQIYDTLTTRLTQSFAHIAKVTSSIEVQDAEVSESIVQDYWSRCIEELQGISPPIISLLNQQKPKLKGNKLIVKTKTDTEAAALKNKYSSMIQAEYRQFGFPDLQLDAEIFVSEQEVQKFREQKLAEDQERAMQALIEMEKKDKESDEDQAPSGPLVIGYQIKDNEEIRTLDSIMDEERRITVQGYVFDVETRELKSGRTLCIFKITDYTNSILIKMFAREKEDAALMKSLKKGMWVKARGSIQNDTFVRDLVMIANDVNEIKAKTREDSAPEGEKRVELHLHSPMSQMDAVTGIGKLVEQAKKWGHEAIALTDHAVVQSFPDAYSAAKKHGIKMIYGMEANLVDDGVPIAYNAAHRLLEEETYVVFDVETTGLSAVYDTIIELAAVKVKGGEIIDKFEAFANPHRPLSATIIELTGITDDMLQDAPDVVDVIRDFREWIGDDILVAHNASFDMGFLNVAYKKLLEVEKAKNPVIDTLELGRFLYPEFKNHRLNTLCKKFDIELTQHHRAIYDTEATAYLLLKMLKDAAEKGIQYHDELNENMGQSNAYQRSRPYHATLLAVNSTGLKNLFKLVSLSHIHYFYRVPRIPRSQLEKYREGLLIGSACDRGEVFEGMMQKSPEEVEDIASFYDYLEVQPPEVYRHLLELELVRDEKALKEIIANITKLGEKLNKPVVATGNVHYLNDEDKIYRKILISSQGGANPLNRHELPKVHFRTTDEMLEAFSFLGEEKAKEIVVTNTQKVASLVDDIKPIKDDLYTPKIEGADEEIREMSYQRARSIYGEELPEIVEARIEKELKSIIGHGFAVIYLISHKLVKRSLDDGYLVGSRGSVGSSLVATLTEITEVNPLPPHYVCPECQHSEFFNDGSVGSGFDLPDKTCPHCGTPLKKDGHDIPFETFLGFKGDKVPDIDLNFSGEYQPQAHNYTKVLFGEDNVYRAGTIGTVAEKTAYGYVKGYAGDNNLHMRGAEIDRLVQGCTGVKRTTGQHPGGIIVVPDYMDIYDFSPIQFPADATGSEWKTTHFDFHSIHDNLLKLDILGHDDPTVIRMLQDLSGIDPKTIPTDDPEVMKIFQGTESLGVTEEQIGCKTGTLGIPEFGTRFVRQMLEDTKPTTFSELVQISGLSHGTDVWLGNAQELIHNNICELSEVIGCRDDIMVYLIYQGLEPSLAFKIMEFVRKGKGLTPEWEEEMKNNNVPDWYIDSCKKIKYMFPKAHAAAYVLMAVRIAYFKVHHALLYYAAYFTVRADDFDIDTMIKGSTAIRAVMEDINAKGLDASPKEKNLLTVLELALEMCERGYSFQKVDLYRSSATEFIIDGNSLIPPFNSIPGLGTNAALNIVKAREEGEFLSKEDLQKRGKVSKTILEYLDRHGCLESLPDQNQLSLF
Description: Polymerase IIIC (Pol IIIC) assay. DNA polymerase activity (or inhibition thereof) was measured in a 96-well plate format. B. subtilis Pol IIIC was isolated as described by Hammond and Brown (Protein Expr. Purif., 3: 65-70 (1992)). Each 25 μl assay contained 30 mM Tris, pH 7.5, 10 mM magnesium acetate, 4 mM dithiothreitol, 20% glycerol, with 25 μM dATP, dCTP, dGTP and 10 μM dTTP (3H-labelled at 1.44 Ci/mmole) and 0.4 mg/ml activated calf thymus DNA as substrates, as described previously (see Barnes et al, op. cit). Assays were initiated by the addition of 0.025 to 0.06 units of enzyme 1 unit is the amount required to incorporate 250 pmoles of [^3H] dTMP in a standard assay), incubated for 10 minutes at 30° C. and terminated by the addition of 200 μl of cold 10% trichloroacetic acid (TCA), 10 mM sodium pyrophosphate. Precipitated labeled DNA was collected on glass fiber filter plates, washed, dried, and counted in a liquid scintillation counter.
Determination of Ki values. DNA polymerase activity was measured in a 96-well plate format in the absence of dGTP or dATP, depending on the structure of the test compound. Each 25 μl assay contained 30 mM Tris, pH 7.5, 10 mM magnesium acetate, 4 mM dithiothreitol, 20% glycerol, with 25 μM dATP, dCTP, and 10 μM dTTP (3H-labelled at 1.44 Ci/mmole) and 0.4 mg/ml activated calf thymus DNA as substrates, as described previously. To each well were added 2 μl of compound solution to give final concentrations ranging from 20-0.027 μg/ml in the assay. Assays were initiated by the addition of 0.025 to 0.06 units of enzyme (1 unit is the amount required to incorporate 250 pmoles of [^3H] dTMP in a standard assay), incubated for 10 minutes at 30° C. and terminated by the addition of 200 μl of cold 10% trichloroacetic acid, 10 mM sodium pyrophosphate. Precipitated labeled DNA was collected on glass fiber filter plates, washed, dried, and counted in a liquid scintillation counter. Ki is the concentration of test compound that reduces the control polymerase mc activity by 50 percent.

[1] = system: Staphylococcus aureus (Smith strain); assay: Protection of mice from lethal intraperitoneal infection, compound given intraperitoneally; type: in vivo; conditions: 15 minutes after infection
Description: FIG. 1B is a bar graph showing number of survivors in each group of five mice at 24 hours after intraperitoneal infection with 1×10^8 colony forming units (CFU) of Staphylococcus aureus (Smith strain) and followed 15 minutes post infection by administration of Compound 2 at a dose of 0 (Vehicle Control), 1, 3, and 10 mg of compound per kg of body weight. Vancomycin at a dose of 10 mg/kg of body weight served as a positive control for antibiotic activity. See text for details.
FIG. 2B is a bar graph showing number of survivors of a group of five mice at 24 hours after intraperitoneal infection with Staphylococcus aureus (Smith strain) as in FIG. 1B, except that Compound 10 was administered to each animal at 0, 0.1, 0.3, 1.0, 3.0, and 10 mg/kg body weight at 15 minutes post infection. Controls were the same as in FIG. 1B. See text for details.
FIG. 3B is a bar graph showing number of survivors in each group of five mice at 24 hours after intraperitoneal infection with Staphylococcus aureus (Smith strain) as in FIG. 1, except that 15 minutes after infection, the mice in each group received a dose of 0.5 mg/kg of body weight of compound 10, 4, 5, 6, 7, 8, or 12. Controls were the same as in FIG. 1. See text for details.
(§1) Swiss Webster mice, ca. 20 g each, were infected with Staphylococcus aureus (Smith strain) by the intraperitoneal route. Test compounds (2, 4, 5, 6, 7, 8, 10, 12) were dissolved in 10% dimethylsulfoxide in peanut oil to a concentration of 2 mg/ml. Vancomycin was used as positive control drug (i.e., protection from lethal infection). Fifteen minutes after infection, test compounds, vancomycin, or vehicle alone were given intraperitoneally to groups of five mice each. Animals were monitored for three days, and the number of mice surviving was tabulated for each treatment.

[2] = system: vancomycin-resistant Enterococcus faecalis strain VRE 700802; assay: In vivo efficacy of Compound 70 in mouse model, VRE 700802; conditions: mice, 3 × 10^8 CFU/mouse +5% Mucin; positive control, 100 mg/kg, t = 0
Description: as §1
(§2) Using the same basic procedure as described above, the in vivo efficacy of Compound 70 was also evaluated at various doses in mice infected with S. aureaus (Smith), MRSA 1094, Enterococcus faecalis, or vancomycin-resistant Enterococcus faecalis strain VRE 700802. […] Negative controls were mice infected that received no treatment. Mucin was employed as an adjuvant to facilitate bacterial infection in mice, where indicated.

[3] = system: enterococci or staphylococci strains, including MRSA and VRE strains; assay: In vivo activity of Compound 70 against intraperitoneal challenge, overall statement; conditions: mice; administration from distant parenteral sites (i.e., iv, sc, or im)
Description: as §2

[4] = system: Enterococcus faecalis (ATCC 29212); assay: In vivo efficacy of Compound 70 in mouse model, Enterococcus faecalis; conditions: mice, 3 × 10^7 CFU/mouse +5% Mucin; positive control, 100 mg/kg, t = 0
Description: as §1, §2

[5] = system: MSSA108 (methicillin sensitive S. aureus strain); assay: MIC determination, MSSA108; type: cell-based; conditions: Staphylococcus aureus, read-out: MIC (μg/ml) MSSA108
Description: (§3) Minimal Inhibitory Concentration (MIC) determinations. […] Each drug is evaluated at five concentrations, with five data points at each dilution. MIC values (μg/ml) were determined against actively growing cultures in Heart-Brain Infusion (HBI) medium. Cell growth in cultures supplemented with a test compound was calculated as a percent of control at OD 600 nm after 16 to 18 hours at 37° C. This plate format conserves test compound and provides precise, quantitative data with low standard deviation determinations.
Compounds were also tested for antibacterial activity against certain clinically relevant strains, e.g., methicillin sensitive (MSSA) and methicillin resistant (MRSA) strains of Staphylococcus aureus.

S. aureus (Smith) = assay: MIC determination, S. aureus (Smith); type: cell-based, Staphylococcus aureus
Description: as §3

S. aureus = assay: MIC determination, S. aureus; type: cell-based, Staphylococcus aureus
Description: as §3

E. fecium = assay: MIC determination, E. fecium; type: cell-based, Enterococcus fecium
Description: as §3, with “C.” for “C. This plate format conserves test compound and provides precise, quantitative data with low standard deviation determinations.”

E. coli = assay: MIC determination, E. coli; type: cell-based, Escherichia coli
Description: as §3

E. fecalis = assay: MIC determination, E. fecalis; type: cell-based, Enterococcus fecalis
Description: as §3, with “C.” for “C. This plate format conserves test compound and provides precise, quantitative data with low standard deviation determinations.”

B. subtilis = assay: MIC determination, B. subtilis; type: cell-based, Bacillus subtilis
Description: as §3

[6] = Swiss Webster mice, dosage range 1-10 mg/kg body weight
[7] = HBI medium, 16 to 18 hours at 37° C.

For `CCc1cc(Nc2ccc(NC(=O)N3CCN(c4cc5c(cc4F)c(=O)c(C(=O)O)cn5CC)CC3)c(=O)[nH]2)ccc1C` [Compound 77, 3-{[1-(1-ethyl-3-carboxy-4-oxo-6-fluoro-7-quinolyl)-4-piperazinyl]carboxamido}-6-(3-ethyl-4-methylanilino)-2-pyridone], the Ki (B. subtilis Pol IIIC; second table) was 8 µM.

`CCc1cc(Nc2cc(=O)n(CCCCN3CCN(c4cc5c(cc4F)c(=O)c(C(=O)O)cn5C4CC4)CC3)c(=O)[nH]2)ccc1C.CS(=O)(=O)O` [Compound 10, 3-{4-[1-(1-cyclopropyl-3-carboxy-4-oxo-6-fluoro-7-quinolyl)-4-piperazinyl]butyl}-6-(3-ethyl-4-methylanilino)uracil methanesulfonate] was tested, and the “infected mice protected from death (group of five)” value ([1]; dose 0.3 mg per kg body weight) was “one of five”, the “protection of infected mice (group of five)” value (from here on “protection of infected mice”) ([1]; dose of 1 mg/kg or higher) was “complete protection” and the “protection of infected mice” value [1, 6] was “provided protection in the same dosage range as Compound 2”.

`O=C(O)c1cn(C2CC2)c2cc(N3CCNCC3)c(F)cc2c1=O` [cflxn, ciprofloxacin] was tested, and the “% Survival at 72 hours” value [2] was 90% (9/10)** and the “Ki (μM) Pol IIIC” value (B. subtilis Pol IIIC) was “inactive”.

In the case of `CCc1cc(Nc2cc(=O)n(CCCCN3CCN(c4c(F)cc5c(=O)c(C(=O)O)cn(C6CC6)c5c4F)CC3C)c(=O)[nH]2)ccc1C` (centres unmarked) [Compound 70, 3-{4-[1-(1-cyclopropyl-3-carboxy-4-oxo-6,8-difluoro-7-quinolyl)-4-(3-methylpiperazinyl)]butyl}-6-(3-ethyl-4-methylanilino)uracil], the “activity against intraperitoneal challenge” value [3] is reported as “dose-related activity”.

`CN[C@H](CC(C)C)C(=O)N[C@H]1C(=O)N[C@@H](CC(N)=O)C(=O)N[C@H]2C(=O)N[C@H]3C(=O)N[C@H](C(=O)N[C@H](C(=O)O)c4cc(O)cc(O)c4-c4cc3ccc4O)[C@H](O)c3ccc(c(Cl)c3)Oc3cc2cc(c3O[C@@H]2O[C@H](CO)[C@@H](O)[C@H](O)[C@H]2O[C@H]2C[C@](C)(N)[C@H](O)[C@H](C)O2)Oc2ccc(cc2Cl)[C@H]1O` [vancomycin] was tested, and the “% Survival at 72 hours” value [4] was 100% (10/10)**.

In the case of `CCc1cc(Nc2cc(=O)n(CCCCN3CCN(c4cc5c(cc4F)c(=O)c(C(=O)O)cn5CC)CC3)c(=O)[nH]2)ccc1C` [Compound 1, 3-{4-[1-(1-ethyl-3-carboxy-4-oxo-6-fluoro-7-quinolyl)-4-piperazinyl]butyl}-6-(3-ethyl-4-methylanilino)uracil], the MIC [5] is reported as 0.313 µg/mL (≈ 0.506 µM), the MIC (S. aureus (Smith); Staphylococcus aureus, table of clinically relevant strains, read-out: MIC (μg/ml) S. aureus (Smith)) is reported as 0.313 µg/mL (≈ 0.506 µM) and the MIC (S. aureus; Staphylococcus aureus, table of clinically relevant strains, read-out: MIC (μg/ml) S. aureus) is reported as 0.313 µg/mL (≈ 0.506 µM).

`CCc1cc(Nc2cc(=O)n(CCCCN3CCN(c4cc5c(cc4F)c(=O)c(C(=O)O)cn5C4CC4)CC3)c(=O)[nH]2)ccc1C` [Compound 2, 3-{4-[1-(1-cyclopropyl-3-carboxy-4-oxo-6-fluoro-7-quinolyl)-4-piperazinyl]butyl}-6-(3-ethyl-4-methylanilino)uracil] was tested, and the “protection of infected mice” value [1, 6] was “protection was afforded all five infected mice”.

With `CCc1cc(Nc2cc(=O)n(CCCCO)c(=O)[nH]2)ccc1C` [HB-EMAU, reference compound] the “MIC (μg/ml) E. fecium” value (E. fecium; [7]) was 5 µg/mL (≈ 15.8 µM), the “MIC (μg/ml) S. aureus (Smith)” value (S. aureus (Smith); [7]) was 5 µg/mL (≈ 15.8 µM) and the “MIC (μg/ml) E. coli” value (E. coli; [7]) was over 80 µg/mL. The “MIC (μg/ml) E. fecalis” value (E. fecalis; [7]) was 5 µg/mL (≈ 15.8 µM), the Ki (B. subtilis Pol IIIC) was 0.066 µM and the “MIC (μg/ml) B. subtilis” value (B. subtilis; [7]) was 1.25 µg/mL (≈ 3.94 µM). The “MIC (μg/ml) S. aureus” value (S. aureus; [7]) was 10 µg/mL (≈ 31.5 µM).

In the case of `CCn1cc(C(=O)O)c(=O)c2cc(F)c(N3CCNCC3)cc21` [nflxn, norfloxacin], the “Ki (μM) Pol IIIC” value (B. subtilis Pol IIIC) is reported as “inactive”.

In the case of “3-{5-[1-(1-ethyl-3-carboxy-4-oxo-6,8-difluoro-7-quinolyl)-3-(1,3-diazabicyclononyl)]pentyl}-6-(3-ethyl-4-methylanilino)uracil [Compound 88]”, the “MIC (μg/ml) E. fecium” value (E. fecium; second table) is reported as 5 µg/mL, the “MIC (μg/ml) S. a. (Smith)” value (S. aureus (Smith); second table) is reported as 1.25 µg/mL and the “MIC (μg/ml) E. coil” value (E. coli; second table) is reported as over 20 µg/mL. For the same compound, the “MIC (μg/ml) E. fecalis” value (E. fecalis; second table) was 2.5 µg/mL, the “MIC (μg/ml) B. subtilis” value (B. subtilis; second table) was 0.625 µg/mL and the “MIC (μg/ml) S. aureus” value (S. aureus; second table) was 1.25 µg/mL.
